Test systems include M14 melanoma; A549 NSCLC; A498 renal; HCC-2998 colon; SNB-75 CNS; HOP-62 NSCLC; TK-10 renal; UACC-257 melanoma; HCT-116 colon; CAKI-1 renal.
Holding throughout (experiment): NCI-60 cell line screen, 48 h

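A five-concentration, 48-hour dose response in 96-well plates underlies each endpoint, interpolated linearly between surrounding concentrations. Here, GI50 denotes the concentration required for 50% inhibition of growth. TGI marks complete inhibition of growth.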

As for `CC[O-].Cc1ccc2cccc([O-])c2n1.Cc1ccc2cccc([O-])c2n1.Cc1ccc2cccc([O-])c2n1.[Ti+4]`, the GI50 with M14 melanoma was 22.2 µM; in the experiment on A549 NSCLC, 11.1 µM; in the experiment on A498 renal, greater than 63.2 µM; with HCC-2998 colon, 27.5 µM; in the experiment on SNB-75 CNS it was 63.8 µM; in the experiment on HOP-62 NSCLC, 53.6 µM. Besides, the GI50 with TK-10 renal is 44.2 µM; in the experiment on UACC-257 melanoma it was 18.6 µM; in the experiment on HCT-116 colon, 33.8 µM; with CAKI-1 renal, greater than 86.6 µM. In addition, the TGI in the experiment with M14 melanoma is greater than 53.5 µM; in the experiment on A549 NSCLC it was 20.6 µM; in the experiment with A498 renal, greater than 100 µM; in the experiment with HCC-2998 colon it was greater than 67.8 µM; in the experiment with SNB-75 CNS, greater than 100 µM; in the experiment on HOP-62 NSCLC, greater than 100 µM. In addition, the TGI is greater than 83.9 µM with TK-10 renal, greater than 85 µM in the experiment on UACC-257 melanoma, greater than 100 µM in the experiment on HCT-116 colon and greater than 100 µM in the experiment with CAKI-1 renal.

As to `C#CCNC(=O)CC[C@]1(C)[C@H]2CC[C@@H]3[C@@H]([C@@](C)(O)CCC=C(C)C)CC[C@@]3(C)[C@]2(C)CC[C@H]1C(=C)C`, the GI50 in the experiment on M14 melanoma is 30.9 µM; with A549 NSCLC, 42.7 µM; in the experiment with A498 renal, greater than 100 µM; in the experiment with HCC-2998 colon, 45.8 µM; in the experiment with SNB-75 CNS it was greater than 100 µM; with HOP-62 NSCLC, 35 µM. Further, the GI50 in the experiment on TK-10 renal was 43.7 µM; in the experiment on UACC-257 melanoma it was 68 µM; with HCT-116 colon it was 17.8 µM; in the experiment with CAKI-1 renal it was 4.25 µM. Besides, the TGI in the experiment with M14 melanoma, with A549 NSCLC, in the experiment on A498 renal, with HCC-2998 colon, in the experiment on SNB-75 CNS and in the experiment on HOP-62 NSCLC was greater than 100 µM in each case. Also, the TGI in the experiment on TK-10 renal was greater than 100 µM; with UACC-257 melanoma, greater than 100 µM; with HCT-116 colon, 35.6 µM; with CAKI-1 renal it was 17.7 µM.

With `CCOC(=O)c1c(C)n2c(=O)cc(C)c3c(OC(C)=O)c(OC(C)=O)cc1c32`, the GI50 in the experiment on M14 melanoma was 3.96 µM; in the experiment on A549 NSCLC, 5.86 µM; in the experiment on A498 renal, 14 µM; with HCC-2998 colon it was 2.45 µM; in the experiment on SNB-75 CNS, 6.08 µM; with HOP-62 NSCLC, 7.05 µM. The GI50 was 15 µM in the experiment on TK-10 renal, 7.64 µM with UACC-257 melanoma, 3.56 µM in the experiment with HCT-116 colon and 6.37 µM in the experiment on CAKI-1 renal. Also, the TGI in the experiment on M14 melanoma was 18.2 µM; in the experiment on A549 NSCLC, 52.3 µM; in the experiment with A498 renal it was 52.1 µM; with HCC-2998 colon, 15.8 µM; with SNB-75 CNS, greater than 28.3 µM; with HOP-62 NSCLC it was 31.5 µM. Besides, the TGI in the experiment on TK-10 renal was greater than 100 µM; in the experiment on UACC-257 melanoma it was 25.3 µM; in the experiment with HCT-116 colon it was 17 µM; in the experiment with CAKI-1 renal, greater than 65.9 µM.

For the compound `O=c1c2ccccc2c(=O)c2c1cc(Cl)c1[nH]c3c([nH]c12)c(Cl)cc1c(=O)c2ccccc2c(=O)c13`, the TGI in the experiment with M14 melanoma, with A549 NSCLC, with A498 renal, with HCC-2998 colon, in the experiment with SNB-75 CNS and with HOP-62 NSCLC was greater than 100 µM in each case. Moreover, the TGI with TK-10 renal, with UACC-257 melanoma, in the experiment on HCT-116 colon and with CAKI-1 renal was greater than 100 µM throughout.

In the case of `CC(=O)OC[C@]12CC[C@@H]([C@@H](C)C(N)=O)[C@@H]1[C@H]1CC[C@@H]3[C@@]4(C)CC[C@H](OC(C)=O)C(C)(C)[C@@H]4CC[C@@]3(C)[C@]1(C)CC2`, the GI50 with M14 melanoma was 7.38 µM; with A549 NSCLC it was 3.97 µM; in the experiment with A498 renal, 12.8 µM; with HCC-2998 colon it was 10.4 µM; with SNB-75 CNS it was 5.59 µM; in the experiment with HOP-62 NSCLC it was 11 µM. Besides, the GI50 in the experiment on TK-10 renal was 14.7 µM; in the experiment with UACC-257 melanoma, 4.83 µM; in the experiment with HCT-116 colon, 3.57 µM; in the experiment on CAKI-1 renal it was 3.24 µM. The TGI is 31.6 µM in the experiment with M14 melanoma; 47.5 µM with A549 NSCLC; 25.6 µM with A498 renal; 26.1 µM in the experiment with HCC-2998 colon; 44.6 µM with SNB-75 CNS; 26.6 µM with HOP-62 NSCLC. For the same compound, the TGI was found to be 39.8 µM with TK-10 renal, 22.7 µM in the experiment with UACC-257 melanoma, 14.7 µM in the experiment with HCT-116 colon and 15.4 µM in the experiment on CAKI-1 renal.

Take `COc1ccc(C2=C(c3cc(OC)c(OC)c(OC)c3)C(=O)CC2)cc1`: the GI50 with M14 melanoma is 0.107 µM; in the experiment with A549 NSCLC, 0.193 µM; in the experiment on A498 renal, 0.0403 µM; in the experiment on HCC-2998 colon, 0.244 µM; in the experiment on SNB-75 CNS, 0.224 µM; in the experiment with HOP-62 NSCLC it was 0.355 µM. In addition, the GI50 was 12.3 µM in the experiment on TK-10 renal, 0.156 µM with HCT-116 colon and 0.76 µM with CAKI-1 renal. Moreover, the TGI in the experiment on M14 melanoma is 4.01 µM; in the experiment on A549 NSCLC it was greater than 100 µM; in the experiment with A498 renal, 0.429 µM; in the experiment with HCC-2998 colon, 18.2 µM; in the experiment with SNB-75 CNS, greater than 100 µM; with HOP-62 NSCLC it was greater than 100 µM. Moreover, the TGI with TK-10 renal, in the experiment with UACC-257 melanoma, with HCT-116 colon and in the experiment on CAKI-1 renal was greater than 100 µM throughout.

Regarding `O=C(Nc1ccccc1Br)c1cccc([N+](=O)[O-])c1O`, the TGI was 28.9 µM in the experiment on M14 melanoma; greater than 100 µM with A549 NSCLC; 9.05 µM in the experiment with A498 renal; 16.6 µM in the experiment with HCC-2998 colon; 53.1 µM in the experiment with SNB-75 CNS; 9.79 µM in the experiment with HOP-62 NSCLC. In addition, the TGI in the experiment on TK-10 renal is 12.6 µM; with UACC-257 melanoma, 10.1 µM; with HCT-116 colon, 14.8 µM; in the experiment with CAKI-1 renal it was greater than 43.8 µM.

Regarding `COc1ccc(/C=C/c2cc(N3CCOCC3)c3cc(F)c(F)cc3n2)cc1OC`, the GI50 was 0.762 µM in the experiment on M14 melanoma; 1.67 µM in the experiment on A549 NSCLC; 1.23 µM in the experiment on A498 renal; 0.876 µM in the experiment with HCC-2998 colon; 1.06 µM in the experiment on SNB-75 CNS; 0.667 µM in the experiment on HOP-62 NSCLC. The GI50 in the experiment with TK-10 renal was 1.14 µM; in the experiment on UACC-257 melanoma, 2.39 µM; in the experiment with HCT-116 colon, 0.414 µM; with CAKI-1 renal, 0.394 µM. Besides, the TGI in the experiment with M14 melanoma came to 3.92 µM; in the experiment on A549 NSCLC it was 8.99 µM; in the experiment with A498 renal, 4.63 µM; with HCC-2998 colon, 4.21 µM; with SNB-75 CNS it was 6.63 µM; with HOP-62 NSCLC, 7.25 µM. In addition, the TGI with TK-10 renal was found to be 10.2 µM; in the experiment on UACC-257 melanoma, 9.89 µM; in the experiment with HCT-116 colon, 10 µM; in the experiment with CAKI-1 renal, 3.24 µM.

Values taken from PubChem BioAssay (NCI).
